Source: patent US6444617B1, “Fused-heterocycle dicarboxylic acid diamide derivatives or salts thereof, herbicide and usage thereof” (Nihon Nohyaku Co., Ltd., priority 1998, dated 2002)

Key:
Assay type in all cases: in vivo
[1] = tested on: barnyard grass (Echinochloa crus-galli Beauv.); test: Test Example 1: herbicidal effect on paddy field weeds before emergence; conditions: Dosage 5 kg/ha
Experimental: (§1) Test for Herbicidal Effect on Paddy Field Weeds Before Emergence Soil was filled into 1/10000 are pots and brought into a state of paddy field, in which seeds of barnyard grass (Echinochloa crus-galli Beauv.) and bulrush (Scirpus juncoides Roxb.) were made to be before germination. The soil in the pots were treated with a solution containing a predetermined dosage of a chemical agent comprising a compound of the present invention listed in Tables 1 to 14. Twenty one days after the treatment, the herbicidal effect was investigated, the result was compared with that in untreated plot to calculate the weed-controlling rate, and the herbicidal effect was judged according to the following criterion: […]

[2] = tested on: bulrush (Scirpus juncoides Roxb.); test: as above; conditions: Dosage 5 kg/ha
Experimental: as §1

[3] = tested on: barnyard grass (Echinochloa crus-galli Beauv.); test: Test Example 2: herbicidal effect on paddy field weeds after emergence; conditions: Dosage 5 kg/ha; one-leaved stage; 21 days after treatment
Experimental: (§2) Test for Herbicidal Effect on Paddy Field Weeds After Emergence. Soil was filled into 1/10000 are pots and brought into a state of paddy field, in which seeds of barnyard grass (Echinochloa crus-galli Beauv.), bulrush (Scirpus juncoides Roxb.) and monochoria (Monochoria vaginalis Presl) were made to reach one-leaved stage. The soil in the pots were treated with a solution containing a predetermined dosage of a chemical agent comprising a compound of the present invention listed in Tables 1 to 14. Twenty one days after the treatment, the herbicidal effect was investigated and the result was compared with that in untreated plot to calculate the weed-controlling rate, and the herbicidal effect was judged according to the same criterion as in Test Example 1.

[4] = tested on: bulrush (Scirpus juncoides Roxb.); test: as above; conditions: Dosage 5 kg/ha; one-leaved stage; 21 days after treatment
Experimental: as §2

[5] = tested on: monochoria (Monochoria vaginalis Presl); test: as above; conditions: Dosage 5 kg/ha; one-leaved stage; 21 days after treatment
Experimental: as §2

[6] = tested on: barnyard grass (Echinochloa crus-galli Beauv.), Ec; test: Test Example 3: herbicidal effect on upland weeds before emergence; conditions: dosage 5 kg/ha
Experimental: (§3) Herbicidal Effect on Upland Weeds Before Emergence […] Then, a liquid preparation of an agent comprising a prescribed concentration of a compound of the present invention (the compounds listed in Tables 1-14) as active ingredient was sprayed. Fourteen days after the treatment, the herbicidal effect was investigated, from which weed-killing rate was calculated in the same manner as in Test Example 1, and the herbicidal effect was judged.

[7] = tested on: bird's eye speedwell (Veronica persica Poir.), Vp; test: as above; conditions: dosage 5 kg/ha
Experimental: as §3

[8] = tested on: cleavers (Galium aparine L.), Ga; test: as above; conditions: dosage 5 kg/ha
Experimental: as §3

[9] = tested on: cocklebur (Xanthium strumarium L.), Xs; test: as above; conditions: dosage 5 kg/ha
Experimental: as §3

[10] = tested on: forxtail grass (Alopecurus aequalis var. amurensis Ohwi), Am; test: as above; conditions: foxtail grass, dosage 5 kg/ha
Experimental: as §3

[11] = tested on: velvetleaf (Abutilon theophtasti L.), At; test: as above; conditions: dosage 5 kg/ha
Experimental: as §3

[12] = tested on: soybean plant (So); test: Test Example 3: phytotoxicity to upland crop plants, treatment before emergence; conditions: dosage 5 kg/ha
Experimental: as §3, with “judged. At the same time, phytotoxicity to soybean plant and wheat was investigated and judged according to the criterion mentioned below.” for “judged.”

[13] = tested on: wheat (Wh); test: as above; conditions: dosage 5 kg/ha
Experimental: as §3, with “judged. At the same time, phytotoxicity to soybean plant and wheat was investigated and judged according to the criterion mentioned below.” for “judged.”

[14] = tested on: barnyard grass (Echinochloa crus-galli Beauv.), Ec; test: Test Example 4: herbicidal effect on upland weeds after emergence; conditions: dosage 5 kg/ha; sprayed after emergence; judged 14 days after treatment
Text: (§4) Herbicidal Effect on Upland Weeds After Emergence Polyethylene-made vats having a size of 10 cm (length)×20 cm (width)×5 cm (height) were filled with soil, sown with seeds of the following noxious upland weeds and with seeds of soybean plant and wheat as upland crop plants, and then covered with soil. The plants were made to grow up until they reached the leaf-stages mentioned below, after which an agent comprising a prescribed concentration of a compound of the present invention (listed in Tables 1 to 14) as active ingredient was sprayed. Fourteen days after the treatment, the herbicidal effect was investigated, from which weed-killing rate was calculated in the same manner as in Test Example 1 and the results were judged. […] Sample weeds, their leaf stages, and leaf stages of soybean plant and wheat were as follows: [table]

[15] = tested on: bird's eye speedwell (Veronica persica Poir.), Vp; test: as above; conditions: dosage 5 kg/ha; sprayed after emergence; judged 14 days after treatment
Text: as §4

[16] = tested on: cleavers (Galium aparine L.), Ga; test: as above; conditions: dosage 5 kg/ha; sprayed after emergence; judged 14 days after treatment
Text: as §4

[17] = tested on: cocklebur (Xanthium strumarium L.), Xs; test: as above; conditions: dosage 5 kg/ha; sprayed after emergence; judged 14 days after treatment
Text: as §4

[18] = tested on: forxtail grass (Alopecurus aequalis var. amurensis Ohwi), Am; test: as above; conditions: dosage 5 kg/ha; sprayed after emergence; judged 14 days after treatment
Text: as §4

[19] = tested on: velvetleaf (Abutilon theophtasti L.), At; test: as above; conditions: dosage 5 kg/ha; sprayed after emergence; judged 14 days after treatment
Text: as §4

[20] = tested on: soybean plant; test: Test Example 4: phytotoxicity to upland crop plants, treatment after emergence; conditions: dosage 5 kg/ha, sprayed after emergence, judged 14 days after treatment
Text: as §4

[21] = tested on: wheat; test: as above; conditions: dosage 5 kg/ha, sprayed after emergence, judged 14 days after treatment
Text: as §4

SMILES	Pre-emergence treatment Barnyard grass (herbicidal effect) [1]	Pre-emergence treatment Bulrush (herbicidal effect) [2]	Post-emergence treatment Barnyard grass (herbicidal effect) [3]	Post-emergence treatment Bulrush (herbicidal effect) [4]	Post-emergence treatment Monochoria (herbicidal effect) [5]	Herbicidal effect Ec [6]	Herbicidal effect Vp [7]	Herbicidal effect Ga [8]	Herbicidal effect Xs [9]	Herbicidal effect Am [10]	Herbicidal effect At [11]	Phytotoxicity So [12]	Phytotoxicity Wh [13]	Herbicidal effect Ec [14]	Herbicidal effect Vp [15]	Herbicidal effect Ga [16]	Herbicidal effect Xs [17]	Herbicidal effect Am [18]	Herbicidal effect At [19]	Phytotoxicity So [20]	further results
CCNC(=O)c1nc2ncccc2cc1C(=O)Nc1c(CC)ccc(Cl)c1CC [Compound No. 360, 3-(3-Chloro-2,6-diethylphenyl)-aminocarbonyl-1,8-naphthylidine-2-carboxylic Acid Ethylamide]	5 (Weed-killing rate is 100%.)	5 (Weed-killing rate is 100%.)	5 (Weed-killing rate is 100%.)	5 (Weed-killing rate is 100%.)	5 (Weed-killing rate is 100%.)	5 (Weed-killing rate is 100%.)	5 (Weed-killing rate is 100%.)	5 (Weed-killing rate is 100%.)	5 (Weed-killing rate is 100%.)	5 (Weed-killing rate is 100%.)	5 (Weed-killing rate is 100%.)	3 (Crop-killing rate is 70-89%.)	4 (Crop-killing rate is 90-99%.)	5 (Weed-killing rate is 100%.)	5 (Weed-killing rate is 100%.)	4 (Weed-killing rate is 90-99%.)	5 (Weed-killing rate is 100%.)	5 (Weed-killing rate is 100%.)	5 (Weed-killing rate is 100%.)	3 (Crop-killing rate is 70-89%.)	Phytotoxicity Wh [21]: 4 (Crop-killing rate is 90-99%.)
CCCNC(=O)c1nc2c(cc1C(=O)Nc1c(CC)ccc(Cl)c1CC)COCC2 [Compound No. 462, 3-(3-Chloro-2,6-diethylphenyl)-aminocarbonyl-7,8-dihydro-5H-pyrano[4,3-b]pyridine-2-carboxylic Acid n-Propylamide]	5 (Weed-killing rate is 100%.)	5 (Weed-killing rate is 100%.)	5 (Weed-killing rate is 100%.)	5 (Weed-killing rate is 100%.)	5 (Weed-killing rate is 100%.)	5 (Weed-killing rate is 100%.)	5 (Weed-killing rate is 100%.)	5 (Weed-killing rate is 100%.)	5 (Weed-killing rate is 100%.)	5 (Weed-killing rate is 100%.)	5 (Weed-killing rate is 100%.)	5 (Crop-killing rate is 100%.)	5 (Crop-killing rate is 100%.)	5 (Weed-killing rate is 100%.)	5 (Weed-killing rate is 100%.)	5 (Weed-killing rate is 100%.)	5 (Weed-killing rate is 100%.)	5 (Weed-killing rate is 100%.)	5 (Weed-killing rate is 100%.)	5 (Crop-killing rate is 100%.)	Phytotoxicity Wh [21]: 5 (Crop-killing rate is 100%.)
